The text below walks through data of patent publication US7655632B2, “Pyrazole derivative, medicinal composition containing the same, medicinal use thereof, and intermediate for production thereof” (Kissei Pharmaceutical Co., Ltd., priority 2002, dated 2010).

One assay addresses T1, human SGLT1 (Homo sapiens, UniProt P13866).
T1 construct: expressed in transfected cells
T1 sequence (P13866 1-664): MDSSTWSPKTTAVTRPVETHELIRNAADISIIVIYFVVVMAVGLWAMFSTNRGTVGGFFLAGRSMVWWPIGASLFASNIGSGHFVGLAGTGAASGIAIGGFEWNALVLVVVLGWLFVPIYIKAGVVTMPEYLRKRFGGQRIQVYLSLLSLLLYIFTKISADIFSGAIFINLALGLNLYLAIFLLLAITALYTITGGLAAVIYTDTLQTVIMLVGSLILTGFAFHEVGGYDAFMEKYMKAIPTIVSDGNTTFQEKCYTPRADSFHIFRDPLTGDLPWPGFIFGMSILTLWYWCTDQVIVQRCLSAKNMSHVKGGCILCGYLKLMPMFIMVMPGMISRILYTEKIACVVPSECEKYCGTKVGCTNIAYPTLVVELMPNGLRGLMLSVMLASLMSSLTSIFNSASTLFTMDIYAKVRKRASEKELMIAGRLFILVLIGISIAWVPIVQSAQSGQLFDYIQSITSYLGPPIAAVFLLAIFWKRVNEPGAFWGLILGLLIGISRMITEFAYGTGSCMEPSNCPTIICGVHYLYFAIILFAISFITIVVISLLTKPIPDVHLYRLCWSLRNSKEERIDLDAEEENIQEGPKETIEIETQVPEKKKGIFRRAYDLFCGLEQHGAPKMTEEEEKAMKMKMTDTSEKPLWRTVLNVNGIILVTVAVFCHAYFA
Description: Assay for inhibitory effects on human SGLT1 activity (uptake of methyl-α-D-glucopyranoside in CS1-5-11D cells). The assay is classed as cell-based. Conditions: CHO-K1 cells stably expressing human SGLT1 (CS1-5-11D); 1 mM α-MG uptake, 37° C., 1 hour. Here is the method:
Assay for Inhibitory Effects on Human SGLT1 Activity
1) Cloning and Construction of the Vector Expressing Human SGLT1
The cDNA library was prepared for PCR amplification by reverse transcription from total RNA deprived from human small intestine (Ori gene) using oligo-dT as a primer. Using this cDNA library as a template, the DNA fragment coding 1 to 2005 bp of human SGLT1 (ACCESSION: M24847), which was reported by Hediger et al., was amplified by PCR method and inserted into the multi-cloning site of pcDNA3.1(−) (Invitrogen). The DNA sequence inserted was perfectly matched to the previously reported sequence.
2) Establishment of Cell Line Stably Expressing Human SGLT1
The expression vector of human SGLT1 was digested by Sca I into a linear DNA. The linear DNA was transfected into CHO-K1 cells by means of lipofection (Effectene Transfection Reagent: QIAGEN). Neomycin resistant cell lines were selected by culture in the medium containing G418 (1 mg/mL, LIFE TECHNOLOGIES), and then the activity against the uptake of methyl-α-D-gluco-pyranoside was measured by the method described below. […] CS1-5-11D cells were cultured in the presence of G418 at 200 μg/mL.
3) Measurement of the Inhibitory Activity Against the Uptake of methyl-α-D-glucopyranoside (α-MG)
CS1-5-11D cells were seeded into a 96-well culture plate at a density of 3×10^4 cells/well and cultured for 2 days, and were used in the uptake assay. A mixture of non-labeled (Sigma) and ^14C-labeled α-MG (Amersham Pharmcia Biotec) was added to the uptake buffer (pH 7.4; containing 140 mM sodium chloride, 2 mM potassium chloride, 1 mM calcium chloride, 1 mM magnesium chloride, 10 mM 2-[4-(2-hydroxyethyl)-1-piperazinyl]ethane sulfonic acid, and 5 mM tris(hydroxymethyl)aminomethane) at the final concentration of 1 mM. A test compound was dissolved in dimethyl sulfoxide, and then appropriately diluted with distilled water. The test compound solution was added to the uptake buffer containing 1 mM α-MG, and designated as a measurement buffer. For the control group, the measurement buffer without any test compound was prepared. For measuring the basal uptake, a basal uptake measurement buffer which contains 140 mM chorine chloride instead of sodium chloride was prepared. After removing the culture medium of CS1-5-11D cells, 180 μL of the pre-treatment buffer (the basal uptake buffer without α-MG) was added to each well and incubated at 37° C. for 10 minutes. After repeating the same treatment, the pre-treatment buffer was removed. To each well was added 75 μL of the measurement buffer or the basal uptake buffer was added and incubated at 37° C. for 1 hour. After removing the measurement buffer, cells were washed twice with 180 μL per well of the washing buffer (the basal uptake buffer containing 10 mM non-labeled α-MG). The cells were solubilized by 75 μL per well of 0.2 mol/L sodium hydroxide. The cell lysates were transferred into PicoPlates (Packard), and then added 150 μL of MicroScint-40 (Packard) and mixed. Radioactivity was measured by means of micro-scintillation counter TopCount (Packard). One hundred % was set to the difference between the uptake in the control group and the basal uptake, and the uptake of methyl α-D-gluco-pyranoside at each drug concentration were calculated.

The subject of the next assay is diabetic rats. Description: Assay for inhibitory effects on blood glucose level increase in rats (liquid meal tolerance test in diabetic rat model). It is filed as in vivo. Conditions: test compound 1 mg/kg orally, liquid meal 17.25 kcal/kg, mean ± S.E.; for Plasma glucose concentration 0.5 h: 0.5 hour after drug administration; for Plasma glucose concentration 1 h: 1 hour after drug administration; for Plasma glucose concentration 0 h: pretreatment (0 h). The procedure: Assay for Inhibitory Effects on Blood Glucose Level Increase in rats
1) Preparation of Diabetic Rat Model
Male wistar rats (Japan Charles River), aged 8 weeks old, were injected nicotinamide (230 mg/kg) intraperitoneally. Fifteen minutes after injection, they were injected streptozotocin (85 mg/kg) intravenously from tail vain under anesthesia with ether. After a week, rats were fasted overnight and then glucose tolerance test (2 g/kg) was done.
2) Liquid Meal Tolerance Test
After overnight fasted, the diabetic rats were orally administered a test compound (1 mg/kg), which was dissolved in distilled water, in the drug-treating group, or distilled water alone in a control group. Immediately after the compound administration, 17.25 kcal/kg of liquid meal (No. 038, Control diet, assorted with dextrin and maltose; Oriental Yeast Co., Ltd.) was loaded orally. The blood was collected from tail artery immediately before and after administration with the time course, and treated with heparin immediately. The blood was centrifuged, and the plasma was collected to quantify the plasma glucose concentration by glucose oxidase method. The values in the table are presented as the mean ±S.E.

As for `CC(C)c1[nH]nc(O[C@@H]2O[C@H](CO)[C@@H](O)[C@H](O)[C@H]2O)c1Cc1ccc(CCCC(=O)NCCCN(CCO)CCO)cc1` [Example 15, 3-(β-D-Glucopyranosyloxy)-5-isopropyl-4-{[4-(3-{3-[bis(2-hydroxyethyl)amino]propylcarbamoyl}propyl)phenyl]methyl}-1H-pyrazole], at human SGLT1, half-maximal inhibition (IC50) was put at 0.113 µM. On to `CC(C)c1[nH]nc(O[C@@H]2O[C@H](CO)[C@H](O)[C@H](O)[C@H]2O)c1Cc1ccc(CCCC(=O)NC(C)(C)C(N)=O)cc1` [Example 33, 4-[(4-{3-[1-Carbamoyl-1-(methyl)ethylcarbamoyl]propyl}-phenyl)methyl]-3-(β-D-galactopyranosyloxy)-5-isopropyl-1H-pyrazole], for which the IC50 (as a rule, the concentration needed to halve the response being measured) against human SGLT1 is 0.174 µM. Further, in the assay with diabetic rats, the “Plasma glucose concentration 0.5 h” value was determined as 207 ± 8 mg/dL, the “Plasma glucose concentration 1 h” value was 251 ± 21 mg/dL and the “Plasma glucose concentration 0 h” value is given as 127 ± 11 mg/dL. “3-(β-D-Galactopyranosyloxy)-4-[(4-{3-[2-hydroxy-1-hydroxy-methyl-1-(methyl)ethylcarbamoyl]propyl}phenyl)methyl]-5-isopropyl-1H-pyrazole [Example 32]” came in with an IC50 against human SGLT1 of 0.22 µM. In addition, in the assay with diabetic rats, the “Plasma glucose concentration 0.5 h” value is 223 ± 20 mg/dL, the “Plasma glucose concentration 1 h” value is 278 ± 32 mg/dL and the “Plasma glucose concentration 0 h” value came to 125 ± 8 mg/dL. As for `CC(C)c1[nH]nc(O[C@@H]2O[C@H](CO)[C@@H](O)[C@H](O)[C@H]2O)c1Cc1ccc(/C=C/C(=O)NC(C)(CO)CO)cc1` [Example 27, 3-(β-D-Glucopyranosyloxy)-4-[(4-{(1E)-2-[2-hydroxy-1-hydroxymethyl-1-(methyl)ethylcarbamoyl]vinyl}phenyl)-methyl]-5-isopropyl-1H-pyrazole], the IC50 on human SGLT1 was determined as 0.237 µM. As to `CC(C)c1[nH]nc(O[C@@H]2O[C@H](CO)[C@@H](O)[C@H](O)[C@H]2O)c1Cc1ccc(CCCS(=O)(=O)NC(C)(C)C(N)=O)cc1` [Example 35, 4-[(4-{3-[1-Carbamoyl-1-(methyl)ethylsulfamoyl]propyl}-phenyl)methyl]-3-(β-D-glucopyranosyloxy)-5-isopropyl-1H-pyrazole], the IC50 against human SGLT1 was determined as 0.115 µM. For the compound `CC(C)c1[nH]nc(O[C@@H]2O[C@H](CO)[C@@H](O)[C@H](O)[C@H]2O)c1Cc1ccc(CCCC(=O)NC(CO)(CO)CO)cc1` [Example 21, 3-(β-D-Glucopyranosyloxy)-4-[(4-{3-[2-hydroxy-1,1-bis-(hydroxymethyl)ethylcarbamoyl]propyl}phenyl)methyl]-5-isopropyl-1H-pyrazole], it took 0.012 µM to reach half-maximal inhibition at human SGLT1 (IC50). In the assay with diabetic rats, the “Plasma glucose concentration 0.5 h” value amounted to 156 ± 15 mg/dL, the “Plasma glucose concentration 1 h” value was found to be 178 ± 19 mg/dL and the “Plasma glucose concentration 0 h” value was 118 ± 9 mg/dL. For the compound `CC(C)c1[nH]nc(O[C@@H]2O[C@H](CO)[C@@H](O)[C@H](O)[C@H]2O)c1Cc1ccc(/C=C/C(=O)NC(CO)(CO)CO)cc1` [Example 28, 3-(β-D-Glucopyranosyloxy)-4-[(4-{(1E)-2-[2-hydroxy-1,1-bis-(hydroxymethyl)ethylcarbamoyl]vinyl}phenyl)methyl]-5-isopropyl-1H-pyrazole], at human SGLT1, half-maximal inhibition (IC50) was put at 0.267 µM. With `CC(C)c1[nH]nc(O[C@@H]2O[C@H](CO)[C@H](O)[C@H](O)[C@H]2O)c1Cc1ccc(CCCC(=O)NC(C)(C)C(=O)N2CCN(CCO)CC2)cc1` [Example 48, 3-(β-D-Galactopyranosyloxy)-4-[(4-{3-[1-{[4-(2-hydroxy-ethyl)piperazin-1-yl]carbonyl}-1-(methyl)ethylcarbamoyl]-propyl}phenyl)methyl]-5-isopropyl-1H-pyrazole], at human SGLT1, the IC50 worked out at 0.031 µM. Further, in the assay with diabetic rats, the “Plasma glucose concentration 0.5 h” value was determined as 139 ± 4 mg/dL, the “Plasma glucose concentration 1 h” value is 132 ± 4 mg/dL and the “Plasma glucose concentration 0 h” value came out at 112 ± 5 mg/dL. The compound `CC(C)c1[nH]nc(O[C@@H]2O[C@H](CO)[C@@H](O)[C@H](O)[C@H]2O)c1Cc1ccc(/C=C/C(=O)NC(C)(C)C(N)=O)cc1` [Example 29, 4-[(4-{(1E)-2-[1-Carbamoyl-1-(methyl)ethylcarbamoyl]vinyl}-phenyl)methyl]-3-(β-D-glucopyranosyloxy)-5-isopropyl-1H-pyrazole] gave an IC50 on human SGLT1 of 0.431 µM. Still for that read-out and setting: for `CC(C)c1[nH]nc(O[C@@H]2O[C@H](CO)[C@@H](O)[C@H](O)[C@H]2O)c1Cc1ccc(CCCC(=O)NC(C)(C)C(N)=O)cc1` [Example 24, 4-[(4-{3-[1-Carbamoyl-1-(methyl)ethylcarbamoyl]propyl}-phenyl)methyl]-3-(β-D-glucopyranosyloxy)-5-isopropyl-1H-pyrazole] the value was 0.024 µM. Same read-out and setting: for `CC(C)c1[nH]nc(O[C@@H]2O[C@H](CO)[C@H](O)[C@H](O)[C@H]2O)c1Cc1ccc(CCCC(=O)NC(C)(C)C(=O)N2CCNCC2)cc1` [Example 57, 3-(β-D-Galactopyranosyloxy)-5-isopropyl-4-{[4-(3-{1-[(piperazin-1-yl)carbonyl]-1-(methyl)ethylcarbamoyl}-propyl)phenyl]methyl}-1H-pyrazole] the value was 0.039 µM.

At human SGLT1, `CC(C)c1[nH]nc(O[C@@H]2O[C@H](CO)[C@@H](O)[C@H](O)[C@H]2O)c1Cc1ccc(CCCC(=O)NC(C)(C)C(=O)NCC(N)=O)cc1` [Example 31, 4-[(4-{3-[1-Carbamoylmethylcarbamoyl-1-(methyl)ethyl-carbamoyl]propyl}phenyl)methyl]-3-(β-D-glucopyranosyloxy)-5-isopropyl-1H-pyrazole] showed an IC50 of 0.096 µM. In the case of “3-(β-D-Glucopyranosyloxy)-4-({4-[3-(2-hydroxyethyl)-carbamoylpropyl]phenyl}methyl)-5-isopropyl-1H-pyrazole [Example 18]”, half-maximal inhibition on human SGLT1 (IC50) was put at 0.181 µM. On the same count and under the same terms, to `CC(C)c1[nH]nc(O[C@@H]2O[C@H](CO)[C@@H](O)[C@H](O)[C@H]2O)c1Cc1ccc(CCCS(=O)(=O)NCCN)cc1` [Example 34, 4-({4-[3-(2-Aminoethylsulfamoyl)propyl]phenyl}methyl)-3-(β-D-glucopyranosyloxy)-5-isopropyl-1H-pyrazole] belongs 0.245 µM.
